Calls of active or inactive are those of the source. The rule behind the calls is not given here.
How the values were obtained:
Mus musculus [1] = experiment: Antiatherosclerotic activity against high fat/high cholesterol fed LDLR-deficient mouse assessed as abcg1 gene regulation at 10 mg/kg administered with diet for 7 days by Experion chip analysis; type: functional, organism-based; design: dose 10 mg/kg
Mus musculus [2] = experiment: Antiatherosclerotic activity against high fat/high cholesterol fed LDLR-deficient mouse duodenum assessed as induction of ABCG8 expression at 0.6 mg/kg administered with diet for 8 weeks; type: functional, organism-based; design: dose 0.6 mg/kg
Mus musculus [3] = experiment: Antiatherosclerotic activity against high fat/high cholesterol fed LDLR-deficient mouse assessed as Fasn gene regulation at 10 mg/kg administered with diet for 7 days by Experion chip analysis; type: functional, organism-based; design: dose 10 mg/kg
Mus musculus [4] = experiment: Antiatherosclerotic activity against high fat/high cholesterol fed LDLR-deficient mouse assessed as abcg5 gene regulation at 0.6 mg/kg administered with diet for 7 days by Experion chip analysis; type: functional, organism-based; design: dose 0.6 mg/kg
Mus musculus [5] = experiment: Antiatherosclerotic activity against high fat/high cholesterol fed LDLR-deficient mouse assessed as lipg gene regulation at 10 mg/kg administered with diet for 7 days by Experion chip analysis; type: functional, organism-based; design: dose 10 mg/kg
Mus musculus [6] = experiment: Antiatherosclerotic activity against high fat/high cholesterol fed LDLR-deficient mouse assessed as apo5 gene regulation at 3 mg/kg administered with diet for 7 days by Experion chip analysis; type: functional, organism-based; design: dose 3 mg/kg
Mus musculus [7] = experiment: Antiatherosclerotic activity against high fat/high cholesterol fed LDLR-deficient mouse assessed as cyp7a1 gene regulation at 0.6 mg/kg administered with diet for 7 days by Experion chip analysis; type: functional, organism-based; design: dose 0.6 mg/kg
Mus musculus [8] = experiment: Antiatherosclerotic activity against high fat/high cholesterol fed LDLR-deficient mouse assessed as scd1 gene regulation at 10 mg/kg administered with diet for 7 days by Experion chip analysis; type: functional, organism-based; design: dose 10 mg/kg
Mus musculus [9] = experiment: Antiatherosclerotic activity against high fat/high cholesterol fed LDLR-deficient mouse duodenum assessed as induction of SREBP-1c expression at 10 mg/kg administered with diet for 8 weeks; type: functional, organism-based; design: dose 10 mg/kg
Mus musculus [10] = experiment: Antiatherosclerotic activity against high fat/high cholesterol fed LDLR-deficient mouse macrophages assessed as induction of ABCG1 expression at 0.6 mg/kg administered with diet for 8 weeks; type: functional, organism-based; design: dose 0.6 mg/kg
Mus musculus [11] = experiment: Antiatherosclerotic activity against high fat/high cholesterol fed LDLR-deficient mouse macrophages assessed as induction of ABCA1 expression at 10 mg/kg administered with diet for 8 weeks; type: functional, organism-based; design: dose 10 mg/kg
Mus musculus [12] = experiment: Antiatherosclerotic activity against high fat/high cholesterol fed LDLR-deficient mouse assessed as Irp1 gene regulation at 0.6 mg/kg administered with diet for 7 days by Experion chip analysis; type: functional, organism-based; design: dose 0.6 mg/kg
Mus musculus [13] = experiment: Antiatherosclerotic activity against high fat/high cholesterol fed LDLR-deficient mouse assessed as Fasn gene regulation at 3 mg/kg administered with diet for 7 days by Experion chip analysis; type: functional, organism-based; design: dose 3 mg/kg
Mus musculus [14] = experiment: Antiatherosclerotic activity against high fat/high cholesterol fed LDLR-deficient mouse duodenum assessed as induction of ABCA1 expression at 10 mg/kg administered with diet for 8 weeks; type: functional, organism-based; design: dose 10 mg/kg
Mus musculus [15] = experiment: Antiatherosclerotic activity against high fat/high cholesterol fed LDLR-deficient mouse assessed as pltp gene regulation at 10 mg/kg administered with diet for 7 days by Experion chip analysis; type: functional, organism-based; design: dose 10 mg/kg
Mus musculus [16] = experiment: Antiatherosclerotic activity against high fat/high cholesterol fed LDLR-deficient mouse duodenum assessed as induction of SREBP-1c expression at 3 mg/kg administered with diet for 8 weeks; type: functional, organism-based; design: dose 3 mg/kg
Mus musculus [17] = experiment: Antiatherosclerotic activity against high fat/high cholesterol fed LDLR-deficient mouse assessed as scab1 gene regulation at 3 mg/kg administered with diet for 7 days by Experion chip analysis; type: functional, organism-based; design: dose 3 mg/kg
Mus musculus [18] = experiment: Antiatherosclerotic activity against high fat/high cholesterol fed LDLR-deficient mouse assessed as pcsk9 gene regulation at 3 mg/kg administered with diet for 7 days by Experion chip analysis; type: functional, organism-based; design: dose 3 mg/kg
Mus musculus [19] = experiment: Antiatherosclerotic activity against high fat/high cholesterol fed LDLR-deficient mouse assessed as pcsk9 gene regulation at 10 mg/kg administered with diet for 7 days by Experion chip analysis; type: functional, organism-based; design: dose 10 mg/kg
Mus musculus [20] = experiment: Antiatherosclerotic activity against high fat/high cholesterol fed LDLR-deficient mouse assessed as abcg5 gene regulation at 3 mg/kg administered with diet for 8 weeks by Experion chip analysis
Mus musculus [21] = experiment: Antiatherosclerotic activity against high fat/high cholesterol fed LDLR-deficient mouse assessed as abcg1 gene regulation at 3 mg/kg administered with diet for 8 weeks by Experion chip analysis
Mus musculus [22] = experiment: Antiatherosclerotic activity against high fat/high cholesterol fed LDLR-deficient mouse assessed as apoc1 gene regulation at 10 mg/kg administered with diet for 7 days by Experion chip analysis; type: functional, organism-based; design: dose 10 mg/kg
Mus musculus [23] = experiment: Antiatherosclerotic activity against high fat/high cholesterol fed LDLR-deficient mouse assessed as srebf1 gene regulation at 3 mg/kg administered with diet for 7 days by Experion chip analysis; type: functional, organism-based; design: dose 3 mg/kg
Mus musculus [24] = experiment: Antiatherosclerotic activity against high fat/high cholesterol fed LDLR-deficient mouse assessed as abca1 gene regulation at 0.6 mg/kg administered with diet for 7 days by Experion chip analysis; type: functional, organism-based; design: dose 0.6 mg/kg
Mus musculus [25] = experiment: Antiatherosclerotic activity against high fat/high cholesterol fed LDLR-deficient mouse assessed as IPl gene regulation at 0.6 mg/kg administered with diet for 7 days by Experion chip analysis; type: functional, organism-based; design: dose 0.6 mg/kg
Mus musculus [26] = experiment: Antiatherosclerotic activity against high fat/high cholesterol fed LDLR-deficient mouse assessed as abcg8 gene regulation at 10 mg/kg administered with diet for 7 days by Experion chip analysis; type: functional, organism-based; design: dose 10 mg/kg
Mus musculus [27] = experiment: Antiatherosclerotic activity against high fat/high cholesterol fed LDLR-deficient mouse macrophages assessed as induction of ABCG1 expression at 3 mg/kg administered with diet for 8 weeks; type: functional, organism-based; design: dose 3 mg/kg
Mus musculus [28] = experiment: Antiatherosclerotic activity against high fat/high cholesterol fed LDLR-deficient mouse assessed as srebf1 gene regulation at 0.6 mg/kg administered with diet for 7 days by Experion chip analysis; type: functional, organism-based; design: dose 0.6 mg/kg
Mus musculus [29] = experiment: Antiatherosclerotic activity against high fat/high cholesterol fed LDLR-deficient mouse macrophages assessed as induction of ABCG1 expression at 10 mg/kg administered with diet for 8 weeks; type: functional, organism-based; design: dose 10 mg/kg
Mus musculus [30] = experiment: Antiatherosclerotic activity against high fat/high cholesterol fed LDLR-deficient mouse duodenum assessed as induction of ABCA1 expression at 0.6 mg/kg administered with diet for 8 weeks; type: functional, organism-based; design: dose 0.6 mg/kg
Mus musculus [31] = experiment: Antiatherosclerotic activity against high fat/high cholesterol fed LDLR-deficient mouse assessed as ldlr gene regulation at 10 mg/kg administered with diet for 7 days by Experion chip analysis; type: functional, organism-based; design: dose 10 mg/kg
Mus musculus [32] = experiment: Antiatherosclerotic activity against high fat/high cholesterol fed LDLR-deficient mouse duodenum assessed as induction of ABCG8 expression at 3 mg/kg administered with diet for 8 weeks; type: functional, organism-based; design: dose 3 mg/kg
Mus musculus [33] = experiment: Antiatherosclerotic activity against high fat/high cholesterol fed LDLR-deficient mouse duodenum assessed as induction of ABCA1 expression at 3 mg/kg administered with diet for 8 weeks; type: functional, organism-based; design: dose 3 mg/kg
Mus musculus [34] = experiment: Antiatherosclerotic activity against high fat/high cholesterol fed LDLR-deficient mouse assessed as IPl gene regulation at 10 mg/kg administered with diet for 7 days by Experion chip analysis; type: functional, organism-based; design: dose 10 mg/kg
Mus musculus [35] = experiment: Antiatherosclerotic activity against high fat/high cholesterol fed LDLR-deficient mouse assessed as apoe gene regulation at 3 mg/kg administered with diet for 7 days by Experion chip analysis; type: functional, organism-based; design: dose 3 mg/kg
Mus musculus [36] = experiment: Antiatherosclerotic activity against high fat/high cholesterol fed LDLR-deficient mouse assessed as abcg8 gene regulation at 0.6 mg/kg administered with diet for 7 days by Experion chip analysis; type: functional, organism-based; design: dose 0.6 mg/kg
Mus musculus [37] = experiment: Antiatherosclerotic activity against high fat/high cholesterol fed LDLR-deficient mouse assessed as apoc1 gene regulation at 0.6 mg/kg administered with diet for 7 days by Experion chip analysis; type: functional, organism-based; design: dose 0.6 mg/kg
THP-1 = experiment: Induction of [3H]cholesterol efflux in human THP1 cells

SMILES	Activity (Mus musculus [1])	Activity (Mus musculus [2])	Activity (Mus musculus [3])	Activity (Mus musculus [4])	Activity (Mus musculus [5])	Activity (Mus musculus [6])	Activity (Mus musculus [7])	Activity (Mus musculus [8])	Activity (Mus musculus [9])	Activity (Mus musculus [10])	Activity (Mus musculus [11])	Activity (Mus musculus [12])	Activity (Mus musculus [13])	Activity (Mus musculus [14])	Activity (Mus musculus [15])	Activity (Mus musculus [16])	Activity (Mus musculus [17])	Activity (Mus musculus [18])	Activity (Mus musculus [19])	Activity (Mus musculus [20])	also measured
O=C(O)Cc1cccc(OCCCN(Cc2cccc(C(F)(F)F)c2Cl)CC(c2ccccc2)c2ccccc2)c1	Active	Active	Active	Active	Active	Active	Active	Active	Active	Active	Active	Active	Active	Active	Active	Active	Active	Active	Active	Active	Activity (Mus musculus [21]): Active; Activity (Mus musculus [22]): Active; Activity (Mus musculus [23]): inactive; Activity (Mus musculus [24]): Active; Activity (Mus musculus [25]): Active; Activity (Mus musculus [26]): Active; Activity (Mus musculus [27]): Active; Activity (Mus musculus [28]): Active; Activity (Mus musculus [29]): Active; Activity (Mus musculus [30]): Active; Activity (Mus musculus [31]): Active; Activity (Mus musculus [32]): Active; Activity (Mus musculus [33]): Active; Activity (Mus musculus [34]): Active; Activity (Mus musculus [35]): Active; Activity (Mus musculus [36]): Active; Activity (Mus musculus [37]): Active
Cc1nc2c(C(F)(F)F)cccc2nc1-c1ccc(-c2cccc(S(C)(=O)=O)c2)cc1	Active	Active	Active	Active	Active	Active	Active	Active	Active	Active	Active	Active	Active	Active	Active	Active	Active	Active	Active	Active	Activity (THP-1): Dose-dependent effect; Activity (Mus musculus [21]): Active; Activity (Mus musculus [22]): Active; Activity (Mus musculus [23]): inactive; Activity (Mus musculus [24]): Active; Activity (Mus musculus [25]): Active; Activity (Mus musculus [26]): Active; Activity (Mus musculus [27]): Active; Activity (Mus musculus [28]): Active; Activity (Mus musculus [29]): Active; Activity (Mus musculus [30]): Active; Activity (Mus musculus [31]): Active; Activity (Mus musculus [32]): Active; Activity (Mus musculus [33]): Active; Activity (Mus musculus [34]): Active; Activity (Mus musculus [35]): Active; Activity (Mus musculus [36]): Active; Activity (Mus musculus [37]): Active
